Measured values published in patent publication US10850274B2, “Microfluidic assisted perfusion devices” (The Regents of the University of California, priority 2015, dated 2020).

Tests used:
[1] = tested on: neonatal mouse cardiomyocytes
Description: Isolated primary neonatal cardiomyocytes were mixed with 8.5% wt/vol GelMa solution containing 0.01% wt/vol of ascorbic acid and 2 mM lithium phenyl-2,4,6-trimethylbenoylphosphinate (LAP). This solution was injected into the fluidics chamber (see FIG. 3D) and a dark transparency mask containing the clear ellipse patterns was placed under the circular chamber of the device. The GelMa solution was photo-polymerized using a UV light source with an excitation wavelength of 365±40 nm (see FIG. 3E). The regions of the hydrogel precursor solution exposed to UV light polymerized rapidly, thereby forming the microtissues with cells encapsulated within (see FIG. 3E). The unreacted hydrogel precursor solution was removed from the fluidics chamber by injecting PBS in excess (see FIG. 3F). Thus, the 3D device with patterned cardiac-microtissues between hydrogels was created (see FIG. 3G). The device was then perfused with cardiomyocyte growth media and incubated at 37° C. and 10% CO2 culture conditions. […]
To quantify the forces generated by the cardiomyocytes, the propagation of forces originating from the GelMA structures were exploited to PAm hydrogels. […] In addition, a measured value of 8.5 kPa was used for the elastic modulus of the PAm hydrogel and 0.45 for Poisson's ratio.
By treating the PAm hydrogel as a 3 dimensional block tethered at the bottom in mechanical equilibrium, a finite element (FE) approach was used to solve a series of electrostatics equations. […] To obtain the input for the boundary condition at the top surface of the gel, the displacement of the hydrogel was quantified by tracking the fluorescent particles embedded within the network using particle image velocimetry (PIV). […]
Using this approach, fluorescent images were obtained of the green beads embedded within PAm at a frequency of 9 frames per second in order to capture the contraction profile of the cardiomyocytes at 20× magnification. […] Using the FE approach, the traction stress field caused by the cellular forces was calculated.

[2] = tested on: HUVECs; experiment: Effect of Doxorubicin on HUVEC endothelial barrier around GelMA structures
Description: HUVECs and MCF7 spheroids were encapsulated within GelMA hydrogels.
Doxorubicin (Cat. No. D1515, Sigma-Aldrich) was weighed and dissolved in DMSO to achieve a concentration of 100 mg/mL. This solution was distributed into small aliquots and stored in −20° C. The stock solution was thawed and diluted to 100 μg/mL in pre-warmed MM (˜37° C.) and sterilized using a DMSO-resistant syringe filter (Pall Corporations). This 100 μg/mL solution was further diluted in MM to acquire doxorubicin concentrations of 1 and 10 μg/mL used herein.
The potential of the device as a drug screening platform was assessed by analyzing the effects of Doxorubicin on HUVEC barrier and the tumor spheroids. Cell laden GelMA structures, cultured for 5 days, were exposed to different concentrations of Doxorubicin (1, 10, and 100 μg/mL) for 3 days.

[3] = tested on: MCF7 spheroids; experiment: Change in MCF7 spheroid size after Doxorubicin treatment in tumor-on-a-chip device; format: cell-based; settings: for decrease in spheroid area: 3 days (D8 area normalized to D5)
Description: HUVECs and MCF7 spheroids were encapsulated within GelMA hydrogels. The MCF spheroids were passed through a cell strainer having 100 μm pore size (Corning) to eliminate single cells and small spheroids. Around 50 spheroids with a diameter of ˜200 μm were dispersed in 5 mL of PBS containing 2 million HUVEC cells. The mixture was centrifuged for 3 minutes at 800 rpm. The supernatant was aspirated and 100 μL of 10% GelMA solution was added to the cell pellet. The cells were re-suspended gently using a pipette before the addition of 0.01% ascorbic acid (antioxidant) and 2 μM LAP (photoinitiator) to the solution. This solution was again mixed gently, drawn into a syringe, and injected into the microfluidic device (FIG. 8, step G).
This device was placed onto a transparency film photomask containing an ellipse pattern and mounted onto a microscope stage (FIG. 8, steps H-I). Using the stage controller of the microscope, the position of the fluidic device was moved to locate individual MCF7 spheroids surrounded by HUVECs under bright field illumination. Each location was exposed to UV light with an excitation and emission wavelengths of approximately 358 and 463 nm, respectively, for 18 seconds. Several locations were photopolymerized before flushing the device with PBS containing 4% Penicillin/Streptomycin. Mixed Media (MM) containing 50% GM and 50% HM was subsequently injected into the device and the GelMA structures containing MCF7 spheroids and HUVECs were cultured at 37° C. and 10% CO2.
Brightfield images of the GelMA hydrogels containing the spheroids and HUVECs were recorded as a function of culture time (1-5 days) to examine their growth post-encapsulation. The area of the spheroid was quantified by tracing the boundary of the spheroid using the free-hand selection tool on ImageJ. […]
The potential of the device as a drug screening platform was assessed by analyzing the effects of Doxorubicin on HUVEC barrier and the tumor spheroids. […] To quantify the effects of Doxorubicin, the changes in spheroid size was analyzed before and after treatment with varying concentrations of the drug.

Row | Structure (SMILES) | magnitude of contraction ([1]; addition of epinephrine (0.1 μg/mL)) | ratio of residual stress in the presence of epinephrine to absence of epinephrine ([1]; multiple microtissues, cultured 7 days, value <1 = decrease, epinephrine 0.1 μg/mL) | ratio of force amplitude in the presence of epinephrine to absence of epinephrine ([1]; multiple microtissues, cultured 7 days, value >1 = increase, epinephrine 0.1 μg/mL) | presence of endothelial barrier ([2]; at and above 10 μg/mL of Doxorubicin, D8) | endothelial barrier ([2]; high doses of Doxorubicin (>10 μg/mL)) | endothelial barrier (cytotoxicity to HUVECs) ([2]; upon exposure to Doxorubicin, 3 days) | spheroid growth less than those cultured in the absence of the drug ([3]; 1 μg/mL Doxorubicin, 3 days, growth still observed) | decrease in spheroid area ([3]; 10 μg/mL Doxorubicin) | decrease in spheroid area ([3]; 100 μg/mL Doxorubicin)
1 | CNC[C@H](O)c1ccc(O)c(O)c1 [epinephrine] | increased | ~0.9 | ~1.4 |  |  |  |  |  | 
2 | COc1cccc2c1C(=O)c1c(O)c3c(c(O)c1C2=O)C[C@@](O)(C(=O)CO)C[C@@H]3O[C@H]1C[C@H](N)[C@H](O)[C@H](C)O1 [Doxorubicin] |  |  |  | lack thereof | loss of the endothelial barrier | disappeared | ~20% | ~7% | ~15%
